# Measured values: US20260027122A1, “USE OF IMIDAZOLINONE DERIVATIVE IN COMBINATION WITH RADIOTHERAPY IN TREATMENT OF TUMORS” (CHENGDU BAIYU PHARMACEUTICAL CO., LTD., priority 2022, published 2026)
# Marks after values point to notes of the source that are not given here.
# Experiments:
# [1] = BALB/c mouse model bearing CT26 transplanted tumor: body weight of mice; type: in vivo; settings: for Body weight: Compound A 20 mpk once a day + IR 2 Gy for 5 consecutive days, in g (unit assumed)
# Description: (§1) Female BALB/c mice were selected to constitute a CT26 subcutaneous transplanted tumor model by subcutaneous injection of tumor cells. When the mean tumor volume reached 150-200 mm^3, mice were divided into 3 experimental groups: Vehicle, IR, and (Compound A (20 mpk)+IR), respectively, with 8 animals per group and 24 animals in total for grouping experiments. Each irradiated group was given an irradiation dose of 2 Gy for 5 consecutive days, the administration group was given the corresponding drug once a day for 39 consecutive days, and the Vehicle group was given a vehicle.
# 2.2 Body weight of mice: mice were weighed at least twice a week during a drug treatment cycle.
# CT26 transplanted tumor = assay: Inhibition experiment using BALB/c mouse model bearing CT26 transplanted tumor: tumor volume; type: in vivo, BALB/c mice; settings: for Tumor volume (Mean ± SEM): Compound A 20 mpk once a day + IR 2 Gy for 5 consecutive days
# Description: as §1
# 2.1 Tumor volume: during a drug treatment cycle, the long diameter (a) and short diameter (b) of tumor tissue were measured using an electronic vernier caliper to calculate the volume of the tumor (tumor volume=0.5×a×b^2).
# [2] = compound A in combination with IR
smiles,measurement,setting,value
CCn1c(=O)n(C2CCOCC2)c2nc(Nc3cc(F)c(C(N)=O)cc3C)ncc21 [Compound A],Body weight,[1]; D0,16.8 ± 0.3
same,Body weight,[1]; D4,17.1 ± 0.3
same,Body weight,[1]; D7,16.0 ± 0.2
same,Body weight,[1]; D11,17.6 ± 0.2
same,Body weight,[1]; D14,17.9 ± 0.2
same,Body weight,[1]; D18,18.6 ± 0.2
same,Body weight,[1]; D21,19.1 ± 0.2
same,Body weight,[1]; D25,19.4 ± 0.3
same,Body weight,[1]; D28,19.7 ± 0.2
same,Body weight,[1]; D32,19.9 ± 0.4
same,Body weight,[1]; D35,20.1 ± 0.3
same,Body weight,[1]; D39,19.6 ± 0.3
same,Tolerance of the animals,[1]; compound A in combination with radiotherapy,good tolerance
same,Effect on body weight gain of animals,"[1]; compound A in combination with radiotherapy, to D39",no effect on body weight gain
same,Tumor volume (Mean ± SEM),CT26 transplanted tumor; D0 (day of grouping),168 ± 22 mm^3
same,Tumor volume (Mean ± SEM),CT26 transplanted tumor; D4,260 ± 41 mm^3
same,Tumor volume (Mean ± SEM),CT26 transplanted tumor; D7,284 ± 47* mm^3
same,Tumor volume (Mean ± SEM),CT26 transplanted tumor; D11,253 ± 56*** mm^3
same,Tumor volume (Mean ± SEM),CT26 transplanted tumor; D14,155 ± 28*** mm^3
same,Tumor volume (Mean ± SEM),CT26 transplanted tumor; D18,101 ± 33***# mm^3
same,Tumor volume (Mean ± SEM),CT26 transplanted tumor; D21,93 ± 34# mm^3
same,Tumor volume (Mean ± SEM),CT26 transplanted tumor; D25,169 ± 71# mm^3
same,Tumor volume (Mean ± SEM),CT26 transplanted tumor; D28,288 ± 105# mm^3
same,Tumor volume (Mean ± SEM),CT26 transplanted tumor; D32,462 ± 148# mm^3
same,Tumor volume (Mean ± SEM),CT26 transplanted tumor; D35,605 ± 189# mm^3
same,Tumor volume (Mean ± SEM),CT26 transplanted tumor; D39,828 ± 247# mm^3
same,Effect on the anti-tumor efficacy of radiotherapy,CT26 transplanted tumor; [2],significantly enhance the anti-tumor efficacy of radiotherapy
same,Tumor volume compared to the Vehicle and IR groups,CT26 transplanted tumor; [2],significantly reduced
